Patent publication EP0435826A1, “Intravenous solutions for epilepsy” (CIBA-GEIGY AG, priority 1989, dated 1991)

Columns and labels:
[1] = test system: Tonische Konvulsionen der Hinterextremitäten; test: Maximal electroshock test in rats (Elektroschock Test an Ratten); format: in vivo; conditions: for ED50: Rattus norvegicus, read-out: Schutz vor dem maximalen Elektroschock ED50
Description: (§1) Beispiel 5: Die akute Schutzwirkung von Carbamazepin und Oxcarbazepin nach intravenöser Verabreichung im Vergleich zur oralen wurde mit Hilfe des maximalen Elektroschocks ermittelt. Die folgenden Methoden wurden verwendet:
-Elektroschock Test an Ratten: Tonische Konvulsionen der Hinterextremitäten wurden durch Verabreichung eines Wechselstroms von 50 Hz und 36 mA während 0,63 Sekunden mit Hilfe von Cornealelektroden ausgelöst. Es wurden 10 Ratten pro Dosis und Zeiteinheit verwendet; eine Gruppe diente als Kontrolle. Die Anzahl der Ratten, die keine tonische Konvulsionen der Hinterextremitäten aufwiesen, wurde für jede Gruppe bestimmt. Die ED₅₀ wurde mit Hilfe der Regressionsanalyse nach der Methode von Spearman und Kärber berechnet.
(§2) -Elektroschock Test an Mäusen: Tonische Konvulsionen der Hinterextremitäten wurden durch Verabreichung eines Wechselstromes von 50 Hz und 18 mA während 0,2 Sekunden mittels Cornealelektroden ausgelöst. Für jede Dosis und Zeiteinheit wurden 10 Mäuse verwendet; eine Gruppe diente als Kontrolle. Die Anzahl der Mäuse, die keine tonische Konvulsionen der Hinterextremitäten zeigte, wurde für jede Gruppe bestimmt. Die ED₅₀ wurde mit Hilfe der Regressionsanalyse nach der Methode von Spearman und Kärber bestimmt. Die Injektionsvolumina für i.v. Verabreichung sind 5 ml/kg bei Mäusen und 1 ml/kg bei Ratten.
[…] Die ED₅₀-Werte wurden durch Regressionsanalyse aus drei verschiedenen Dosen (10 Ratten pro Dosis) berechnet.

[2] = test system: Tonische Konvulsionen der Hinterextremitäten; test: Maximal electroshock test in mice (Elektroschock Test an Mäusen); format: in vivo; conditions: Mäuse; for ED50: Mus musculus, read-out: Schutz vor dem maximalen Elektroschock ED50
Description: as §1, §2

[3] = Solubility and properties of aqueous Hydroxypropyl-γ-cyclodextrin injection solutions; conditions: 22°C, in 40%-iger wässriger Lösung von Hydroxypropyl-γ-cyclodextrin
Description: In 100 ml dieser Lösung werden 1500 mg Carbamazepin durch Rühren bei Raumtemperatur (= 20°C) gelöst.
In 100 ml dieser Lösung werden 400,0 mg fein gemahlenes Oxcarbazepin durch Rühren bei 22°C gelöst.

[4] = iv, 5 min, intravenös, 5 min before shock
[5] = iv, 0.25 h, intravenös, 15 min before shock
[6] = po, 5 min, oral (suspension in Methocel®), 5 min
[7] = po, 0.5 h, oral (suspension in Methocel®), 30 min
[8] = po, 1 h, oral (suspension in Methocel®), 60 min
[9] = iv, 2.5 min, intravenös, 2,5 min
[10] = po, 2 h, oral (suspension in Methocel®), 120 min
[11] = po, 0.25 h, oral (suspension in Methocel®), 15 min

SMILES | ED50 [1, 4] [mg/kg] | ED50 [1, 5] [mg/kg] | ED50 ([1]; iv, 0.5 h, intravenös, 30 min) [mg/kg] | ED50 ([1]; iv, 1 h, intravenös, 60 min) [mg/kg] | ED50 ([1]; iv, 2 h, intravenös, 120 min) [mg/kg] | ED50 [1, 7] [mg/kg] | ED50 [1, 8] [mg/kg] | ED50 [2, 9] [mg/kg] | ED50 ([2]; iv, 5 min, intravenös, 5 min) [mg/kg] | ED50 ([2]; iv, 0.25 h, intravenös, 15 min) [mg/kg] | ED50 ([2]; iv, 0.5 h, intravenös, 30 min) [mg/kg] | ED50 ([2]; iv, 1 h, intravenös, 60 min) [mg/kg] | ED50 [2, 8] [mg/kg] | ED50 [2, 10] [mg/kg] | other results
NC(=O)N1c2ccccc2C=Cc2ccccc21 [Carbamazepin, 5H-Dibenz[b,f]azepin-5-carboxamid] | 2.5 | 2.5 | 2 | 3.1 | 4.3 | 9.6 | 10 | 2.9 | 2.6 | 4.7 | 6.8 | 6.5 | 13 | 27 | ED50 ([1]; po, 2.5 min, oral (suspension in Methocel®), 2,5 min): 60 mg/kg; ED50 [1, 6]: 60 mg/kg; ED50 ([2]; iv, 2 h, intravenös, 120 min): 17.3 mg/kg; Schutz vor dem maximalen Elektroschock ([2]; oral (suspension in Methocel®), 2,5 min, bei 60 mg/kg): 10 % bei 60 mg/kg
NC(=O)N1c2ccccc2CC(=O)c2ccccc21 [Oxcarbazepin, 10,11-Dihydro-10-oxo-5-dibenz[b,f]-acepin-5-carboxamid] | 3.44 | 2.5 | 3.44 | 4.85 | 5.7 | 12.2 | 15.8 | 4.35 | 4.35 | 5 | 7.07 | 10.7 | 17.8 | 36.3 | Löslichkeit [3]: 37 mg in 10,0 ml; ED50 [1, 11]: 12.2 mg/kg; ED50 [1, 10]: 16.1 mg/kg; Schutz vor dem maximalen Elektroschock ED50 ([1]; intravenös, 15 min before shock, 15 min): 3,44 mg/kg; Schutz vor dem maximalen Elektroschock ([1]; oral (suspension in Methocel®), 5 min, bei 30 mg/kg): 20 % bei 30 mg/kg; ED50 [2, 6]: 40.4 mg/kg; ED50 [2, 11]: 14.5 mg/kg; ED50 [2, 7]: 15.7 mg/kg; Schutz vor dem maximalen Elektroschock ED50 ([2]; intravenös, 2,5 min, 2.5 min): 2,35 mg/kg; Schutz vor dem maximalen Elektroschock ED50 ([2]; intravenös, 15 min): 5,00 mg/kg; Schutz vor dem maximalen Elektroschock ED50 ([2]; intravenös, 60 min): 10,72 mg/kg; Schutz vor dem maximalen Elektroschock ([2]; intravenös, 120 min, bei 20 mg/kg): 20 % bei 20 mg/kg
